Assay results reported in patent US7354904B2, “Bacteriocin inducer peptides” (priority 2005, dated 2008).

How the values were obtained:
C. jejuni = experiment: Spot Test, antagonistic activity of isolated signal peptides; assay type: cell-based, Campylobacter jejuni; conditions: isolated signal peptide
Experimental: (§1) The antagonistic activity of the bacteriocins produced when using the signal peptide and an inducer strain of bacteria against C. jejuni and S. enteritidis was assessed using a Spot Test. The steps included taking various concentrations of pure preparation (μg/ml) of the bacteriocin in approximately 10 microliters of volume plated onto blood-supplemented Campylobacter agar or Nutrient agar (MPA or Meta Peptone Agar) previously seeded with cells of target bacteria. Plates containing cultures of C. jejuni were grown at about 42° C., under microaerobic conditions. Plates containing S. enteritidis were grown at about 37° C. under aerobic conditions. Activity of the bacteriocin was expressed in arbitrary units (AU) per one milliliter of the preparation at which a visible zone of inhibition of the growth of culture appears (Henderson et al., Archives of Biochemistry and Biophysics, Volume 295, 5-12, 1992; herein incorporated by reference). Specific activity can also expressed as arbitrary units per milligram of pure bacteriocin.
(§2) Its activity was about 200 AU/ml and its molecular weight was about 2.5 kDa, as determined by SDS-PAGE electrophoresis. The isoelectric point (pI) was about 7.9 (FIGS. 1A and 1B).
(§3) Its molecular weight was about 3.1 kDa as measured by SDS-PAGE and the isoelectric point (pI) was about 8.1 (FIGS. 2A and 2B).
(§4) Its molecular weight was about 2.1 kDa as determined by SDS-PAGE electrophoresis and its isoelectric point was about 8.9 (FIGS. 3A and 3B).

S. enteritidis = experiment: as above; assay type: cell-based; conditions: isolated signal peptide
Experimental: as §1, §2, §3, §4

[1] = Isoelectric point by isoelectrofocusing; assay type: physicochemical
Source text: FIGS. 1A and 1B are photographs showing the direct detection of signal peptide and bacteriocin OR-7 after SDS-PAGE (A) and isoelectrofocusing (B). […] In FIG. 1A Lane 1-Molecular Mass Markers LMW Range 2,100-12,500 (Amersham Pharmacia Biotech): 2,100; 5,780; 8,400; 12,500 Da. […] Lane 3 contained pI standards (Protein Test Mixture, I Marker Proteins, Serva): 10.0, 9.2, 8.1, 6.9, 5.5, 4.3.
FIGS. 2A and 2B are photographs showing direct detection of signal peptide and bacteriocin 50-52 after SDS-PAGE (A) and isoelectrofocusing (B). […] Lane 3 contained pI standards (Protein Test Mixture, I Marker Proteins, Serva): 10.0, 8.1, 7.9, 6.4, 5.5, 4.3, 4.1, and 3.8.
FIGS. 3A and 3B are photographs showing the direct detection of signal peptide and bacteriocin 760 after SDS-PAGE(A) and isoelectrofocusing (B). […] Lane 3 contained pI standards (Protein Test Mixture, I Marker Proteins, Serva): 10.0, 8.1, 7.9, 6.4, 5.5, 4.3, 4.1, and 3.8.
At the end of 14 hours the supernatant from the cultures was placed into 500 ml centrifuge flasks with about one milliliter of regenerated Sepharose SP Fast Flow (v/v 500: 1). This was incubated for approximately 1 hour at room temperature with stirring. The suspension was then washed with about 100 ml of a 0.2 M TRIS-HCl buffer pH approximately 6.4. The bacteriocins were eluted by centrifugation with about 100 ml of approximately 0.2 M K2HPO4, pH of about 5.8 at about 7,000×g for approximately 10 minutes. Antagonistic activity of the bacteriocin fractions against C. jejuni and S. enteritidis was assessed using a Spot Test as described above. The level of purity of the bacteriocin fractions was determined by SDS-PAGE. The isoelectric points of the fractions were determined by isoelectric focusing. Concentrations of protein for all bacteriocin fractions were determined at 215 nm using a spectrophotometer.

[2] = system: Lactobacillus salivarius PVD-32; experiment: Influence of signal peptide on bacteriocin OR-7 production, flask culture (fraction protein at 215 nm, activity by Spot Test against C. jejuni and S. enteritidis); assay type: cell-based
[3] = system: Streptococcus cricetus LWP 760; experiment: Influence of signal peptide on bacteriocin 760 production, flask culture (fraction protein at 215 nm, activity by Spot Test against C. jejuni and S. enteritidis); assay type: cell-based
[4] = 10% B-B, producer PVD-32 + inducer LWP-252, LWP 50-52 peptide 0.1 mg
[5] = LWP 760 + LWP 320, 0.1 mg LWP 50-52 peptide

## TNVTKSWWVLAGCNQVVASNCNCGNVKGLT (listed as Enterococcus faecium) [LWP 50-52 Signal Peptide, signal peptide isolated from Enterococcus faecium LWP 50-52, stimulates bacteriocin 50-52 production]
C. jejuni
  antagonistic activity: did not possess antagonistic activity
S. enteritidis
  antagonistic activity: did not possess antagonistic activity
[1]
  isoelectric point (pI): about 8.1
[2]; [4]
  Activity: 51,200 AU/ml
  Protein Concentration: 0.17 Mg/ml
  Protein increase vs. Control: 0.85
  Specific Activity: 301,176 AU/mg
  mg protein/liter: 56.1 mg protein/liter
[2]; signal peptide of another strain added to PVD-32 + LWP-252
  yield of bacteriocin OR-7 versus the control: does not increase
[3]; [5]
  Activity: 1,638,840 AU/ml
  Increase in amount of protein vs. control: 1
  Protein Concentration: 0.30 mg/mL
  Protein Produced from 1 liter Culture Fluid: 99 mg
  Specific Activity: 5,462,666 Au/mg
[3]; signal peptide of another strain added to LWP 760 + LWP 320
  yield of bacteriocin 760 versus control: did not increase
